Measured values as given in ChEMBL document CHEMBL3639362, “Pyrrolopyrazoles, potent kinase inhibitors” (2013).

Molecular target: Serine/threonine-protein kinase PAK 4 (Homo sapiens, UniProt O96013)
Assay: Enzymatic Assay: The enzymatic activity of PAK4 KD was measured by its ability to catalyzed the transfer of a phosphate residue from a nucleoside triphosphate to an amino acid side chain of a commercially available peptide (amino acid sequence EVPRRKSLVGTPYWM).

Chain of Serine/threonine-protein kinase PAK 4 (O96013 whole entry): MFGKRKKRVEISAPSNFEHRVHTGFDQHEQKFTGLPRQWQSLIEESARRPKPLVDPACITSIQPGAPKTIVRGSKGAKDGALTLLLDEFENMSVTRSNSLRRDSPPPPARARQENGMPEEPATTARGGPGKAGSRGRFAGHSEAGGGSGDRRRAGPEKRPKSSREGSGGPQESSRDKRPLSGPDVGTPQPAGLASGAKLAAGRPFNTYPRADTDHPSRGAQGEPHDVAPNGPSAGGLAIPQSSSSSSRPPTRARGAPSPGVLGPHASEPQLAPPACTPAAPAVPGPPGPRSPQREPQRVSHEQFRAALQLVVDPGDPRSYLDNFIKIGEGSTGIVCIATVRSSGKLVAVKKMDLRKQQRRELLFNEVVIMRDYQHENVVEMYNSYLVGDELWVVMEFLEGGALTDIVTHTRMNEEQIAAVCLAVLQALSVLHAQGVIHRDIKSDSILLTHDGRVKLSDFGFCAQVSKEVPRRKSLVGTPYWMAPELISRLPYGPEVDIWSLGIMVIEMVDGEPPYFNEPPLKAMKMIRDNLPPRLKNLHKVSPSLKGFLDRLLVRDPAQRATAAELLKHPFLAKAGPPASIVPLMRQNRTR

For `CC1(C)c2n[nH]c(Nc3nc(Cl)nc(N4CCC[C@H]4C(N)=O)n3)c2CN1C(=O)NC1C[C@@H]1c1ccccc1` (stereo partly specified), the EC50 was > 4 µM.
